# Results: patent US6872732B2, “Heterocyclic derivatives and medicinal use thereof” (Kyoto Pharmaceutical Industries, Ltd., priority 2001, dated 2005)
# Read-outs that look alike come from different tables or passages of the source.
# Columns and labels:
# male KK-A^y mice = assay: Decrease of plasma glucose and triglyceride in KK-Ay mice; type: in vivo; conditions: non-fasting, 10 mg/kg/day orally for 4 consecutive days, 24 hours after final administration, vs control group
# Protocol: The test compounds (compounds of Examples 2, 6, 8, 16, 26, 27 and 31) were suspended in 5% gum arabic solution and administered (10 mg/kg/day) orally to the administration group for 4 consecutive days from the next day. The 5% gum arabic solution was orally administered to the control group.
# [1] = test system: 6-week-old female Wistar rats; conditions: 30 and 100 mg/kg/day orally, 2 consecutive weeks
# Protocol: Using 6-week-old female Wistar rats, toxicity by repeat administration was examined.
# (§1) The rats were grouped (6 rats per group) into a control group and test compound (compound of Example 6) administration groups (30 and 100 mg/kg/day), such that the mean and the standard deviation of the body weight of the rats were nearly the same. The test compound was suspended in 0.5% methylcellulose solution and administered orally for 2 consecutive weeks from the next day. The 0.5% methylcellulose solution was orally administered to the control group. The rats were fasted for 16 hr from the last day of administration, anesthetized by intraperitoneal administration of pentobarbital sodium (50 mg/kg) 24 hr after the final administration and the blood was drawn. Using EDTA-added blood, hematocrit value and erythrocyte count were measured, and using serum, AST (GOT) and ALT (GPT) were measured. In addition, the total blood volume was calculated. The white fat around the uterus, and the liver and heart were removed and wet weights thereof were measured.
# 6-week-old male SD rats = conditions: 30 and 100 mg/kg/day orally, 4 consecutive weeks
# Protocol: Using 6-week-old male SD rats, toxicity by repeat administration was examined.
# as §1, with “for 4” for “for 2”, “the epididymides,” for “the uterus,”
# male db/db mice = conditions: for Decrease (%) in glucose level / Decrease (%) in triglyceride: plasma, 24 hours after final administration
# Protocol: Using db/db mice genetically showing high plasma glucose, hypertriglyceridemia, insulin resistance and obesity, the pharmacological activity of the test compound of Example 6 was examined.
# Blood was drawn under a non-fasting state from the tail vein of male db/db mice, the glucose level and triglyceride level of the plasma were measured using commercially available assay kits (glucose CII-test WAKO and triglyceride G-test WAKO, Wako Pure Chemical Industries, Ltd.). The mice were grouped (6 mice per group) into a control group and test compound (compound of Example 6) administration groups (3 and 10 mg/kg/day), such that the mean and standard deviation of the body weight and the plasma glucose and plasma triglyceride levels in each group were nearly the same. The test compound was suspended in 0.5% methylcellulose solution and administered orally for 2 consecutive weeks from the next day. The 0.5% methylcellulose solution was orally administered to the control group. Blood was drawn under a non-fasting state from the tail vein 24 hours after the final administration and the glucose and triglyceride levels of the plasma were measured. The decrease in the plasma glucose and triglyceride levels was calculated from the following formula.
# [2] = 3 and 10 mg/kg/day orally, 2 weeks
# [3] = 3 mg/kg/day orally for 2 consecutive weeks
# [4] = 10 mg/kg/day orally for 2 consecutive weeks
compound,measurement,setting,value
"CC(C)(C)N.CC=CC=CC(=O)N1Cc2cc(OCCc3nc(-c4ccc(C(C)C)cc4)oc3C)ccc2C[C@H]1C(=O)O [Example 27, tert-butylamine 2-(2,4-hexadienoyl)-7-{2-[2-(4-isopropylphenyl)-5-methyloxazol-4-yl]ethoxy}-1,2,3,4-tetrahydroisoquinoline-(3S)-carboxylate]",Decrease (%) in glucose level,male KK-A^y mice,55.8%
same,Decrease (%) in triglyceride,male KK-A^y mice,73.8%
"CC(C)(C)N.CC=CC=CC(=O)N1Cc2cc(OCCc3nc(-c4ccc(OCc5ccccc5)cc4)oc3C)ccc2C[C@H]1C(=O)O [Example 26, tert-butylamine 7-{2-[2-(4-benzyloxyphenyl)-5-methyloxazol-4-yl]ethoxy}-2-(2,4-hexadienoyl)-1,2,3,4-tetrahydroisoquinoline-(3S)-carboxylate]",Decrease (%) in glucose level,male KK-A^y mice,43.7%
same,Decrease (%) in triglyceride,male KK-A^y mice,67.8%
CC=CC=CC(=O)N1Cc2cc(OCCc3nc(-c4ccccc4)oc3C)ccc2C[C@H]1C(=O)O [Example 6],Decrease (%) in glucose level,male KK-A^y mice,45.9%
same,Decrease (%) in triglyceride,male KK-A^y mice,45.7%
same,"body weight, difference from control group",[1],no significant difference
same,"erythrocyte count, difference from control group",[1],no significant difference
same,"hematocrit value, difference from control group",[1],no significant difference
same,"total blood volume, difference from control group",[1],no significant difference
same,"weight of the heart, difference from control group",[1],no significant difference
same,"weight of the liver, difference from control group",[1],no significant difference
same,"weight of white fat around the uterus, difference from control group",[1],no significant difference
same,"ALT (GPT), difference from control group",[1]; serum,no significant difference
same,"AST (GOT), difference from control group",[1]; serum,no significant difference
same,"body weight, difference from control group",6-week-old male SD rats,no significant difference
same,"erythrocyte count, difference from control group",6-week-old male SD rats,no significant difference
same,"hematocrit value, difference from control group",6-week-old male SD rats,no significant difference
same,"total blood volume, difference from control group",6-week-old male SD rats,no significant difference
same,"weight of the heart, difference from control group",6-week-old male SD rats,no significant difference
same,"weight of the liver, difference from control group",6-week-old male SD rats,no significant difference
same,"weight of white fat around the epididymides, difference from control group",6-week-old male SD rats,no significant difference
same,"ALT (GPT), difference from control group",6-week-old male SD rats; serum,no significant difference
same,"AST (GOT), difference from control group",6-week-old male SD rats; serum,no significant difference
same,plasma glucose level after treatment,male db/db mice; [2],almost the normal levels
same,plasma triglyceride level after treatment,male db/db mice; [2],almost the normal levels
same,Decrease (%) in glucose level,male db/db mice; [3],59.9%
same,Decrease (%) in triglyceride,male db/db mice; [3],77.1%
same,Decrease (%) in glucose level,male db/db mice; [4],64.4%
same,Decrease (%) in triglyceride,male db/db mice; [4],78.8%
"CC(C)(C)N.CC=CC=CC(=O)N1Cc2cc(OCCc3nc(-c4ccc(C(C)(C)C)cc4)oc3C)ccc2C[C@H]1C(=O)O [Example 16, tert-butylamine 7-{2-[2-(4-tert-butylphenyl)-5-methyloxazol-4-yl]ethoxy}-2-(2,4-hexadienoyl)-1,2,3,4-tetrahydroisoquinoline-(3S)-carboxylate]",Decrease (%) in glucose level,male KK-A^y mice,60.9%
same,Decrease (%) in triglyceride,male KK-A^y mice,73.4%
"CCCCC=CC(=O)N1Cc2cc(OCCc3nc(-c4ccccc4)oc3C)ccc2C[C@H]1C(=O)O [Example 2, 2-(2-heptenoyl)-7-[2-(5-methyl-2-phenyloxazol-4-yl)ethoxy]-1,2,3,4-tetrahydroisoquinoline-(3S)-carboxylic acid]",Decrease (%) in glucose level,male KK-A^y mice,46.8%
same,Decrease (%) in triglyceride,male KK-A^y mice,44.9%
"CCCC#CC(=O)N1Cc2cc(OCCc3nc(-c4ccccc4)oc3C)ccc2C[C@H]1C(=O)O [Example 8, 2-(2-hexynoyl)-7-[2-(5-methyl-2-phenyloxazol-4-yl)ethoxy]-1,2,3,4-tetrahydroisoquinoline-(3S)-carboxylic acid]",Decrease (%) in glucose level,male KK-A^y mice,46.1%
same,Decrease (%) in triglyceride,male KK-A^y mice,55.2%
"CC(C)(C)N.CC=CC=CC(=O)N1Cc2cc(OCCc3nc(-c4ccc(N(C)C)cc4)oc3C)ccc2C[C@H]1C(=O)O [Example 31, tert-butylamine 7-{2-[2-(4-dimethylaminophenyl)-5-methyloxazol-4-yl]ethoxy}-2-(2,4-hexadienoyl)-1,2,3,4-tetrahydroisoquinoline-(3S)-carboxylate]",Decrease (%) in glucose level,male KK-A^y mice,39.4%
same,Decrease (%) in triglyceride,male KK-A^y mice,20.1%
